Key:
[1] = Dissolution rate test in Wood apparatus, amorphous NSF; assay type: physicochemical; details: for Dissolution Rate Constants: 150 mg tablets, 37° C., 50 rpm; for Difference in dissolution rate between dissolution media: pH 1.2 versus pH 6.8; for Dissolution rate as compared to the neutral DSV: FIGS. 4A-4I, different pH values
Procedure: The dissolution rate tests were performed in aqueous media, in a Wood apparatus with 150 mg tablets at 37° C. and 50 rpm in different dissolution media, as shown in Tables 2 and 3.

[2] = Comparative dissolution profiles of five solid phases; assay type: physicochemical; design: Dissolution rate constant k: unit not given here; details: for Dissolution rate relative to the other shown phases: pH 1.2, 4.5 and 6.8; for Dissolution rate constant k: 37° C., 50 rpm
Procedure: FIG. 14. Dissolution profile in HCl solution (pH 1.2, 37° C., 50 rpm, n=3, ±SD) of the new crystalline solid phase of desvenlafaxine-3,4-dihydroxybenzoic acid (crystalline DSV:3,4-DHB), and comparison with the new amorphous solid phase of desvenlafaxine-3,4-dihydroxybenzoic acid (amorphous DSV:3,4-DHB), the new crystalline solid phase of desvenlafaxine-2,4-dihydroxybenzoic acid (crystalline DSV:2,4-DHB), desvenlafaxine (DSV), and desvenlafaxine succinate (DSV succinate). FIG. 15. Dissolution profile in acetate buffer (pH 4.5, 37° C., 50 rpm, n=3, ±SD) of the new crystalline solid phase of desvenlafaxine-3,4-dihidroxibenzoic acid (crystalline DSV:3,4-DHB), and comparison with the new amorphous solid phase of desvenlafaxine-3,4-dihydroxybenzoic acid (amorphous DSV:3,4-DHB), the new crystalline solid phase of desvenlafaxine-2,4-dihydroxybenzoic acid (crystalline DSV:2,4-DHB), desvenlafaxine (DSV), and desvenlafaxine succinate (DSV succinate). FIG. 16. Dissolution profile in phosphate buffer (pH 6.8, 37° C., 50 rpm, n=3, ±SD) of the new crystalline solid phase of desvenlafaxine-3,4-dihydroxybenzoic acid (crystalline DSV:3,4-DHB), and comparison with the new amorphous solid phase of desvenlafaxine-3,4-dihydroxybenzoic acid (amorphous DSV:3,4-DHB), the new crystalline solid phase of desvenlafaxine-2,4-dihydroxybenzoic acid (crystalline DSV:2,4-DHB), desvenlafaxine (DSV), and desvenlafaxine succinate (DSV succinate). A comparative test was carried out for the dissolution profiles at pH 1.2, 4.5 and 6.8 for the new crystalline phase DSV:3,4-DHB with respect to the amorphous NSF with the same co-former, the crystalline NSF with 2,4-dihydroxybenzoic acid, as well as desvenlafaxine base and the commercial salt (desvenlafaxine succinate).

[3] = Indicative physical stability test (X-ray powder diffraction); assay type: physicochemical; details: 40° C., 75% humidity, 30 days
Procedure: The amorphous NSF obtained from DSV:3-HB, DSV:3,4-DHB and DSV:3,4,5-THB were subjected to physical stability tests, wherein the NSF were subjected to temperatures of 45 and 50° C. in dry conditions (no humidity), and to 40° C., 75% humidity for 30 days.

[4] = Thermogravimetric analysis (TGA/DSC) of crystalline NSF; assay type: physicochemical
Procedure: The compound was observed as stable until 190° C., the temperature at which decomposition starts to occur.
The crystalline NSF of DSV:2,4-DHB was also characterized by X-ray powder diffraction (see FIG. 10), as well as thermogravimetric analysis (TGA/DSC) (see FIG. 11).

[5] = Intrinsic dissolution of the crystalline NSF DSV:3,4-DHB; assay type: physicochemical
Procedure: Dissolution profiles were assessed for the crystalline NSF of DSV:3,4-DHB. The rate constant values are grouped in Table 6.

[6] = assay type: physicochemical
Source text: Solubility tests could not be determined because the amorphous NSF obtained are very soluble and a large amount is required to saturate the solution.

Structure (SMILES) | Dissolution Rate Constants ([1]; pH 1.2) | Difference in dissolution rate between dissolution media [1] | Dissolution Rate Constants ([1]; pH 4.5) | Dissolution Rate Constants ([1]; pH 6.8) | Dissolution Rate Constants ([1]; water) | Dissolution rate as compared to the neutral DSV [1] | Quotient (kNSF/kDSV) ([2]; pH 1.2) | Dissolution rate constant k ([2]; pH 1.2, HCl solution) | Quotient (kNSF/kDSV) ([2]; pH 4.5) | Dissolution rate constant k ([2]; pH 4.5, acetate buffer) | Quotient (kNSF/kDSV) ([2]; pH 6.8) | Dissolution rate constant k ([2]; pH 6.8, phosphate buffer) | Physical stability [3] | Stable until, temperature at which decomposition starts [4] | Intrinsic dissolution rate constant k ([5]; pH 1.2) | Intrinsic dissolution rate constant k ([5]; pH 4.5) | Intrinsic dissolution rate constant k ([5]; pH 6.8) | Solubility [6] | Dissolution rate relative to the other shown phases [2]
CN(C)CC(c1ccc(O)cc1)C1(O)CCCCC1 (racemic) [DSV, (±)-1-[2-(dimethylamino)-1-(4-hydroxyphenyl)ethyl]cyclohexanol, reference compound] | 6.9 mg/cm^2 · min | 14 times higher | 1.2 mg/cm^2 · min | 0.5 mg/cm^2 · min | 0.0 mg/cm^2 · min |  |  |  |  |  |  |  |  |  |  |  |  |  | 
CN(C)CC(c1ccc(O)cc1)C1(O)CCCCC1.O=C(O)c1ccc(O)c(O)c1 (centres unmarked) [Amorphous DSV:3,4-DHB, desvenlafaxine-3,4-dihydroxybenzoic acid] | 4.4 mg/cm^2 · min | lower or almost null difference | 5.0 mg/cm^2 · min | 5.7 mg/cm^2 · min | 2.3 mg/cm^2 · min | higher dissolution rate | 5.0 | 6.69 | 18.4 | 6.81 | 17.0 | 5.45 | only possible to characterize |  |  |  |  |  | the higher dissolution rate
CN(C)CC(c1ccc(O)cc1)C1(O)CCCCC1.O=C(O)c1ccc(O)cc1O (centres unmarked) [Crystalline DSV:2,4-DHB, desvenlafaxine-2,4-dihydroxybenzoic acid] |  |  |  |  |  |  | 0.79 | 1.07 | 0.94 | 0.35 | 0.71 | 0.23 |  | about 150 °C |  |  |  |  | lower dissolution rate than the commercial salt (succinate) and any of the other shown phases
CN(C)CC(c1ccc(O)cc1)C1(O)CCCCC1.O=C(O)c1ccc(O)c(O)c1 (centres unmarked) [Crystalline DSV:3,4-DHB, 3,4-dihydroxybenzoate salt of anhydrous desvenlafaxine] |  |  |  |  |  |  | 1.8 | 2.47 | 5.9 | 2.19 | 4.8 | 1.54 |  | 190 °C | 2.48 mg/cm2 · min | 2.19 mg/cm2 · min | 1.43 mg/cm2 · min |  | 
CN(C)CC(c1ccc(O)cc1)C1(O)CCCCC1 (centres unmarked) [DSV-Succinate, desvenlafaxine succinate, reference compound] |  |  |  |  |  |  | 2.1 |  | 6.9 |  | 10.0 |  |  |  |  |  |  |  | 

More lines, main results first:

Dissolution Rate Constants ([1]; pH 1.2) | Difference in dissolution rate between dissolution media [1] | Dissolution Rate Constants ([1]; pH 4.5) | Dissolution Rate Constants ([1]; pH 6.8) | Dissolution Rate Constants ([1]; water) | Dissolution rate as compared to the neutral DSV [1] | Quotient (kNSF/kDSV) ([2]; pH 1.2) | Dissolution rate constant k ([2]; pH 1.2, HCl solution) | Quotient (kNSF/kDSV) ([2]; pH 4.5) | Dissolution rate constant k ([2]; pH 4.5, acetate buffer) | Quotient (kNSF/kDSV) ([2]; pH 6.8) | Dissolution rate constant k ([2]; pH 6.8, phosphate buffer) | Physical stability [3] | Stable until, temperature at which decomposition starts [4] | Intrinsic dissolution rate constant k ([5]; pH 1.2) | Intrinsic dissolution rate constant k ([5]; pH 4.5) | Intrinsic dissolution rate constant k ([5]; pH 6.8) | Solubility [6] | Structure (SMILES) | Dissolution rate relative to the other shown phases [2]
5.4 mg/cm^2 · min |  | 6.1 mg/cm^2 · min | 9.0 mg/cm^2 · min | 1.6 mg/cm^2 · min | higher dissolution rate |  |  |  |  |  |  |  |  |  |  |  | the solution did not become saturated | CN(C)CC(c1ccc(O)cc1)C1(O)CCCCC1.O=C(O)c1cc(O)c(O)c(O)c1 (centres unmarked) [DSV:3,4,5-THB, desvenlafaxine-3,4,5-trihydroxybenzoic acid] | 
5.8 mg/cm^2 · min |  | 6.1 mg/cm^2 · min | 5.4 mg/cm^2 · min | 3.8 mg/cm^2 · min |  |  |  |  |  |  |  |  |  |  |  |  |  | CN(C)CC(c1ccc(O)cc1)C1(O)CCCCC1.O=C(O)c1cccc(O)c1 (centres unmarked) [DSV:3-HB, desvenlafaxine-3-hydroxybenzoic acid] | 

From patent US10207982B2, “Solid forms of desvenlafaxine” (ALPARIS, S.A. DE C.V., priority 2016, dated 2019)
